Results on one compound are retold here after EP1143992B1, “THERAPEUTIC COMPOSITIONS CONTAINING GLUTATHIONE ANALOGS” (TELIK, INC., priority 1999, dated 2000).

SMILES strings stand for the structures. Read-outs that look alike come from different tables or passages of the source.

Series [1] is described as follows: Particle size of lipid microspheres. The note with it: lipid microspheres after 1.2µm filter, 300 µg/mL. It counts as physicochemical. As to the method: Then 2.21 gm of glycerol and enough distilled water to bring the volume to 100 mL(approximately 90 mL) were added, followed by a rough emulsification by means of a homogenizer. The product is then further emulsified by means of a manton gaulin type homogenizer. […]

The procedure of series [2]:
The lyophilization cycle involved rapid freezing of the sample (2.5 ml fill of 10 ml vial) to a sample temperature of -50°C, followed by lyophilization at a tray temperature of -35°C for 42 hours to remove primary water, and for 2 hours at 20°C to remove secondary water.
The MLVs may be passed (5-10x) through stacked polycarbonate filters (pore size of 80 nm) using an EXTRUDER (Lipex Biomembranes, Vancouver, Canada).

Series [3] has as its system fluorouracil-induced neutropenia. The following applies: rats; fluorouracil 125mg/kg intraperitoneally; liposomal formulation of Example 4, 35mg/kg, 8 daily intravenous injections; Figure 1. As to the method:
Male CD rats (250-300g) were injected intraperitoneally with either the antineoplastic drug, fluorouracil (125mg/kg) or an equivalent volume of its vehicle (saline). […] Rats originally injected with saline rather than fluorouracil received saline intravenously (n = 7). Blood samples were taken for measurement of neutrophil levels prior to the fluorouracil and every 1 to 2 days thereafter for 14 days.

In series [4] the test system is circulating neutrophil levels. The note with it: normal rats; liposomal formulation of Example 4, 35mg/kg, i.v., 5 daily injections; Figure 2. From the text: Blood samples were taken for measurement of neutrophil levels daily.
For series [5] the following is noted: Drug/Lipid 0.25, EPC/EPG (1/1), Sucrose 300 mM.

Consider `CCOC(=O)C(N)CCC(=O)NC(CSCc1ccccc1)C(=O)N[C@@H](C(=O)OCC)c1ccccc1.Cl` (stereo partly shown) [Compound 9, γ-Glutamyl-S(benzyl)cysteinyl-R-phenyl glycine diethyl ester hydrochloride], for which, in series [1], the “particles of final emulsion” value is given as “approximately 220 nM”. The “Drug (mg/ml)” value in series [2] (ethanol dilution, Drug/Lipid 0.25 wt/wt, EPC, comparative example) is 16.2. mg/ml. In series [2] (removed by extrusion through 80 nm filters), the “precipitated form of the drug” value is recorded as under 2%. Moreover, the “recovery from chemotherapy-induced neutropenia” value in series [3] is reported as “accelerated recovery”. The circulating neutrophil levels result in series [4] was “increased”. Moreover, the Viscosity entry in series [5] (Lyophilization Time 32 hr) is on record as “Negligible”; in series [5] (Lyophilization Time 40 hr) it was “Negligible”; in series [5] (Lyophilization Time 44 hr) it was “Negligible”; in series [5] (Lyophilization Time 54 hr), “Viscous”; in series [5] (Lyophilization Time 59 hr) it was “Very Viscous”.
